The source of these data is patent US7659299B2, “Compounds inhibiting the binding of sap for treating osteoarthritis” (Pentraxin Therapeutics Limited, priority 2003, dated 2010).

Holding throughout (parameters): 5 μl of radiolabelled SAP in TN; from tissue
Test [1] has as its target T1, SAP (Homo sapiens, UniProt P02743). Description: Inhibition of binding of 125I radiolabelled SAP to Neisseria meningitidis immobilized in microtitre plates. The following applies: for inhibition at 0.2 µM / inhibition at 2 µM / inhibition at 20 µM / inhibition at 200 µM / inhibition at 2000 µM: read-out: Percent inhibition of binding of radiolabelled SAP to immobilized Neisseria meningitidis. The procedure:
A suspension of heat killed Neisseria meningitidis at 1×10^8 organisms per ml in PBS was dispensed to polystyrene microtitre plates at 50 μl volumes per well, and left overnight at 4° C. All wells were then washed three times with 200 μl volumes of PBS containing 0.05% v/v Tween 20, prior to equilibration for 2 min with 0.01M Tris buffered 0.14M NaCl/0.002M CaCl2 at pH 8.0 (TC buffer), containing 4% w/v BSA and 0.05%/v Tween 20 (TCBT buffer). The wells were then emptied before adding to each one the following reagents. […] For background, non-specific, non calcium dependent, binding in the presence of EDTA: 5 μl radiolabelled SAP in TN and 45 μl 0.01M Tris buffered 0.14M NaCl at pH 8.0 containing 11.1 mM EDTA, 4.4% w/v BSA and 0.06% w/v Tween 20 (TEBT buffer) to provide final concentrations of EDTA, 10 mM; BSA, 4%; Tween 20, 0.05%. […] All wells were then incubated at room temperature for 2 h before being washed three times with 200 μl volumes of TCBT, allowed to dry for 1 h at room temperature, and bound radiolabelled SAP was then counted.
The capacity of the compounds tested to inhibit binding of SAP to meningococci is expressed as the percentage by which SAP binding was reduced compared to binding in the absence of any inhibitor (Table 1).

In test [2] the target is T1, SAP. Description: Inhibition of binding of 125I radiolabelled SAP to native long chromatin immobilized in microtitre plates. The following applies: for inhibition at 0.2 µM / inhibition at 2 µM / inhibition at 20 µM / inhibition at 200 µM / inhibition at 2000 µM: read-out: Percent inhibition of binding of radiolabelled SAP to immobilized native long chromatin.
Test [3] concerns the target T1, SAP. Description: Inhibition of binding of 125I radiolabelled SAP to influenza virus immobilized in microtitre plates. The following applies: for inhibition at 0.2 µM / inhibition at 2 µM / inhibition at 20 µM / inhibition at 200 µM / inhibition at 2000 µM: read-out: Percent inhibition of binding of radiolabelled SAP to immobilized influenza virus. As to the method:
A concentrated suspension of purified influenza virus A/Shanghai/24/90 at 10 mg protein per ml in PBS was diluted 1:50 in PBS and then dispensed to polystyrene microtitre plates at 50 μl volumes per well, and left overnight at 4° C. All wells were then emptied before blocking by addition to each well of 200 μl of 2% w/v BSA in PBS and incubation at room temperature for 1 h. All wells were then washed three times with 200 μl volumes of PBS containing 0.05% v/v Tween 20, prior to equilibration for 2 min with 0.01M Tris buffered 0.14M NaCl/0.002M CaCl2 at pH 8.0 (TC buffer), containing 4% w/v BSA and 0.05% v/v Tween 20 (TCBT buffer). The wells were then emptied before adding to each one the following reagents. […] For background, non-specific, non calcium dependent, binding in the presence of EDTA: 5 μl radiolabelled SAP in TN and 45 μl 0.01M Tris buffered 0.14M NaCl at pH 8.0 containing 11.1 mM EDTA, 4.4% w/v BSA and 0.06% w/v Tween 20 (TEBT buffer) to provide final concentrations of EDTA, 10 mM; BSA, 4%; Tween 20, 0.05%. […] All wells were then incubated at room temperature for 2 h before being washed three times with 200 μl volumes of TCBT, allowed to dry for 1 h at room temperature, and bound radiolabelled SAP was then counted. The compounds tested in the experiment shown here were the same as those specified in Example B above.
The capacity of the compounds tested to inhibit binding of SAP to the immobilised influenza virus is expressed as the percentage by which SAP binding was reduced compared to binding in the absence of any inhibitor (Table 3).

T1 sequence (P02743 20-223): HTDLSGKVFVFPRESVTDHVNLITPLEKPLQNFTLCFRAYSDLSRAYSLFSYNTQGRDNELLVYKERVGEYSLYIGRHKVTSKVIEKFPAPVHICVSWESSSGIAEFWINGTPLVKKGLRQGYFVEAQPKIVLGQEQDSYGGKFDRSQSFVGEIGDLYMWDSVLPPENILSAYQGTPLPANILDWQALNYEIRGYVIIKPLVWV

As to `O=C(O)CN(CCN(CC(=O)O)CC(=O)O)CC(=O)O` [EDTA, reference compound], the “Percent inhibition of binding of radiolabelled SAP to immobilized Neisseria meningitidis” value at SAP [1] (EDTA 10 mM (printed in the 2 mM column)) is listed as 100%. Besides, the “Inhibition of binding of SAP to meningococci, in words” value on SAP [1] (summary of Table 1) was “All binding was inhibited”. In addition, the “Inhibition of binding of SAP to chromatin, in words” value at SAP [2] (Table 2) is listed as “All binding was inhibited”. The “Inhibition of binding of SAP to immobilised influenza virus, in words” value at SAP [3] (summary of Table 3) is given as “All binding was inhibited”.

Broadly, the inhibition is the relative decrease from the control value, in per cent. Consider `O=C(O)[C@H]1CCCN1C(=O)Cc1ccc(CC(=O)N2CCC[C@@H]2C(=O)O)cc1` [Ro-63-7777, (R)-1-[[4-[2-[(R)-2-Carboxy-pyrrolidin-1-yl]-2-oxo-ethyl]-phenyl]-acetyl]-pyrrolidine-2-carboxylic acid], for which the inhibition at 0.2 µM on SAP [1] (compound 200 nM) stood at 7%; at SAP [2] (compound 200 nM) it was 4%; on SAP [3] (compound 200 nM) it was 37%. In addition, the inhibition at 2 µM on SAP [1] (compound 2 μM) turned out to be 64%; on SAP [2] (compound 2 μM), 19%; at SAP [3] (compound 2 μM), 65%. The inhibition at 20 µM at SAP [1] (compound 20 μM) was found to be 73%; at SAP [2] (compound 20 μM) it was 39%; on SAP [3] (compound 20 μM), 85%. The inhibition at 200 µM on SAP [1] (compound 200 μM) amounted to 100%; on SAP [2] (compound 200 μM) it was 66%; at SAP [3] (compound 200 μM) it was 89%. Besides, the inhibition at 2000 µM at SAP [1] (compound 2 mM) is 100%; at SAP [2] (compound 2 mM), 92%; at SAP [3] (compound 2 mM), 89%.

With `O=C(O)[C@H]1CCCN1C(=O)COc1ccccc1OCC(=O)N1CCC[C@@H]1C(=O)O` [Ro-63-8593, (R)-1-[[2-[2-[(R)-2-Carboxy-pyrrolidin-1-yl]-2-oxo-ethoxy]-phenoxyl]-acetyl]-pyrrolidine-2-carboxylic acid], the figures for the inhibition at 0.2 µM on SAP [1] (compound 200 nM), at SAP [2] (compound 200 nM) and at SAP [3] (compound 200 nM) were 18%, 7% and 44%, respectively. The values for the inhibition at 20 µM on SAP [1] (compound 20 μM), on SAP [2] (compound 20 μM) and on SAP [3] (compound 20 μM) were 87%, 77% and 88%, respectively. For the same molecule, the inhibition at 200 µM at SAP [1] (compound 200 μM) is 100%; on SAP [2] (compound 200 μM), 89%; at SAP [3] (compound 200 μM), 93%. In addition, the inhibition at 2000 µM on SAP [1] (compound 2 mM) amounted to 100%; at SAP [2] (compound 2 mM), 96%; on SAP [3] (compound 2 mM), 94%. Moreover, the inhibition at 2 µM worked out at 34% at SAP [2] (compound 2 μM) and 68% at SAP [3] (compound 2 μM).

With `O=C(O)[C@H]1CCCN1C(=O)[C@H]1CC[C@@H](C(=O)N2CCC[C@@H]2C(=O)O)CC1` [Ro-64-2600, (R)-1-[cis-4-[(R)-2-Carboxy-pyrrolidine-1-carbonyl]-cyclohexanecarbonyl]-pyrrolidine-2-carboxylic acid], the inhibition at 0.2 µM on SAP [1] (compound 200 nM) was 31%; at SAP [2] (compound 200 nM), 1%; at SAP [3] (compound 200 nM), 0%. In addition, the inhibition at 2 µM worked out at 73% at SAP [1] (compound 2 μM), 35% on SAP [2] (compound 2 μM) and 76% on SAP [3] (compound 2 μM). Further, the inhibition at 20 µM at SAP [1] (compound 20 μM) worked out at 93%; on SAP [2] (compound 20 μM), 67%; at SAP [3] (compound 20 μM) it was 83%. The inhibition at 200 µM at SAP [2] (compound 200 μM) was found to be 94%; on SAP [3] (compound 200 μM) it was 89%. Besides, the inhibition at 2000 µM is 100% on SAP [2] (compound 2 mM) and 92% on SAP [3] (compound 2 mM).

In the case of `O=C(O)[C@H]1CCCN1C(=O)Cc1cccc(CC(=O)N2CCC[C@@H]2C(=O)O)c1` [Ro-64-2668, (R)-1-[[3-[2-[(R)-2-Carboxy-pyrrolidin-1-yl]-2-oxo-ethyl]-phenyl]-acetyl]-pyrrolidine-2-carboxylic acid], the inhibition at 0.2 µM turned out to be 28% on SAP [1] (compound 200 nM), 0% at SAP [2] (compound 200 nM) and 25% on SAP [3] (compound 200 nM). Besides, the inhibition at 2 µM on SAP [1] (compound 2 μM) was 64%; at SAP [2] (compound 2 μM), 18%; on SAP [3] (compound 2 μM), 68%. For the same molecule, the inhibition at 20 µM at SAP [1] (compound 20 μM) is 92%; at SAP [2] (compound 20 μM) it was 56%; on SAP [3] (compound 20 μM) it was 73%. In addition, the inhibition at 200 µM was 100% at SAP [1] (compound 200 μM), 94% on SAP [2] (compound 200 μM) and 77% at SAP [3] (compound 200 μM). For the same molecule, the inhibition at 2000 µM on SAP [1] (compound 2 mM) turned out to be 100%; on SAP [2] (compound 2 mM) it was 98%; on SAP [3] (compound 2 mM) it was 82%.

As for `COc1cccc(OCC(=O)N2CCC[C@@H]2C(=O)O)c1OCC(=O)N1CCC[C@@H]1C(=O)O` [Ro-64-2845, (R)-1-[[2-[2-[(R)-2-carboxy-pyrrolidin-1-yl]-2-oxo-ethoxy]-3-methoxy-phenoxy]-acetyl]-pyrrolidine-2-carboxylic acid], the inhibition at 0.2 µM stood at 19% at SAP [1] (compound 200 nM), 11% on SAP [2] (compound 200 nM) and 16% at SAP [3] (compound 200 nM). Also, the inhibition at 2 µM amounted to 74% on SAP [1] (compound 2 μM) and 52% on SAP [3] (compound 2 μM). Besides, the figures for the inhibition at 20 µM at SAP [1] (compound 20 μM), on SAP [2] (compound 20 μM) and on SAP [3] (compound 20 μM) were 92%, 75% and 62%, respectively. Also, the inhibition at 200 µM at SAP [1] (compound 200 μM) worked out at 93%; on SAP [2] (compound 200 μM) it was 96%; on SAP [3] (compound 200 μM), 77%. The inhibition at 2000 µM amounted to 100% at SAP [2] (compound 2 mM) and 89% at SAP [3] (compound 2 mM).

As to `Cc1c(OCC(=O)N2CCC[C@@H]2C(=O)O)cccc1OCC(=O)N1CCC[C@@H]1C(=O)O` [Ro-64-2848, (R)-1-[[3-[2-[(R)-1-Carboxy-pyrrolidin-1-yl]-2-oxo-ethoxy]-2-methyl-phenoxy]-acetyl]-pyrrolidine-2-carboxylic acid], the “Percent inhibition of binding of radiolabelled SAP to immobilized Neisseria meningitidis” value is reported as 1% on SAP [1] (compound 200 nM); 64% on SAP [1] (compound 2 μM); 93% on SAP [1] (compound 20 μM); 100% at SAP [1] (compound 200 μM); 100% on SAP [1] (compound 2 mM). The “Percent inhibition of binding of radiolabelled SAP to immobilized native long chromatin” value was found to be 0% at SAP [2] (compound 200 nM); 22% on SAP [2] (compound 2 μM); 65% on SAP [2] (compound 20 μM); 95% at SAP [2] (compound 200 μM); 98% on SAP [2] (compound 2 mM). The “Percent inhibition of binding of radiolabelled SAP to immobilized influenza virus” value at SAP [3] (compound 200 nM) came to 24%; at SAP [3] (compound 2 μM), 65%; at SAP [3] (compound 20 μM), 81%; at SAP [3] (compound 200 μM), 81%; at SAP [3] (compound 2 mM), 85%.
